Tested on: 3T3-adipocytes
Assay: 2-deoxy-D-[3H] glucose uptake in 3T3-L1 adipocytes
Assay type: cell-based, mouse
Settings: insulin 6 nM during differentiation
Experimental: The 3T3-L1-pre-adipocytes were obtained from the American Type Culture Collection and were propagated at 37° C. in DMEM with 10% newborn calf serum plus 50 U/ml penicillin and 50 μg/ml streptomycin in an incubator under a humidified atmosphere of 5% CO2/95% air. Induction of differentiation was done one day post-confluence. Cells were maintained in differentiation medium of the following composition: DMEM, 10% FBS, […] dexamethasone, 0.5 mM 1-isobutyl-3-methylxanthine (IBMX) and ITS for three days. At day 3, the dexamethasone and IBMX were removed with ITS remaining on the cells for an additional two days. Differentiation was allowed to continue in DMEM supplemented with 10% FBS, ITS and the adipocytes were used between day 9 and 14 post-induction. Prior to the cellular assays, cells were serum starved by overnight incubation in DMEM (containing 0.2% serum).
Glucose uptake activity was analyzed by measuring the uptake of 2-deoxy-D-[^3H] glucose as described previously (Sakoda et al. (1999) Diabetes, 48:1365-1371). Briefly, confluent 3T3-L1 adipocytes grown in 6-well plates were washed twice with serum-free DMEM and incubated with 2 ml of the same medium at 37° C. for 2 hours. The cells were washed 3 times with Krebs-Ringer-HEPES (KRH) buffer and incubated with 2 ml KRH buffer at 37° C. for 30 minutes. Insulin (6 nM) and/or Cr(pa)3 (0-25 μM) were then added to adipocytes accompanying the procedure of differentiation. Glucose uptake was initiated by the addition of 0.1 ml KRH buffer and 2-deoxy-D-[^3H] glucose (0.2 μCi/ml) and 5 mM glucose as final concentrations. Glucose uptake was terminated by washing the cells three times with cold PBS. The cells were lysed overnight with 1 ml 0.5M NaOH and 0.1% SDS (w/v). The radioactivity retained by the cell lysates was determined by a scintillation counter (Beckmann LC 6000IC) and normalized to protein amount measured with a Micro BCA Protein Assay Kit (Pierce Chemical, Rockford, Ill.).

Q: Which “increase in glucose uptake by adipocytes” value does the source give for insulin here?
A: fourfold

— patent US7271278B2, “Application of chromium-amino acid complexes in the treatment of diabetes and other diseases” (The University of Wyoming, priority 2005, dated 2007)
